Tests used:
Test in all cases: biochemical
MLL2 Complex = MLL2 Complex (Homo sapiens, UniProt O14686); parameters: gene KMT2D
DNMT3b/3L = DNMT3b/3L (Homo sapiens, UniProt Q9UBC3)
SET7/9 = target: T1, SET7/9 (Homo sapiens, UniProt Q8WTS6)
T1 construct: gene SETD7
T1 sequence (Q8WTS6 1-366): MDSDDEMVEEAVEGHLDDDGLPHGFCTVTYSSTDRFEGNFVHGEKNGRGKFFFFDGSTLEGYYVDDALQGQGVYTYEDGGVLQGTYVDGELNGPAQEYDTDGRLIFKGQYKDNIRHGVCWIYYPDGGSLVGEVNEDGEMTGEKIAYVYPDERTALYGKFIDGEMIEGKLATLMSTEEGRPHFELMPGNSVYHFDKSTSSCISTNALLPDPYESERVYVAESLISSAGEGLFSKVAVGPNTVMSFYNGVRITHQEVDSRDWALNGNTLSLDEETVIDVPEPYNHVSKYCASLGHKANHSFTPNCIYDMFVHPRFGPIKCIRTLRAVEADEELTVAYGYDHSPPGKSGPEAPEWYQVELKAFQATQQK

DNMT3a = DNMT3a (Homo sapiens, UniProt Q9Y6K1)
MLL4 Complex = MLL4 Complex (Homo sapiens, UniProt Q9UMN6); parameters: gene KMT2B
SETD2 = target: T2, SETD2 (Homo sapiens, UniProt Q9BYW2)
T2 sequence (Q9BYW2 1434-1711): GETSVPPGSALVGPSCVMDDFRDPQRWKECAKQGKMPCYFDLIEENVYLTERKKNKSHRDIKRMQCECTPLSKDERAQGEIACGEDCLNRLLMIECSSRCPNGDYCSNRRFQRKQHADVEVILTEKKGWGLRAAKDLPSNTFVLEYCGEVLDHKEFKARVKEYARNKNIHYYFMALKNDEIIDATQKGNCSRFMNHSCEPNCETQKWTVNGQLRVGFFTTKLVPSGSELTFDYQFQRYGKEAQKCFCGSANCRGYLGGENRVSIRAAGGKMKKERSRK

MLL3 Complex = MLL3 Complex (Homo sapiens, UniProt Q8NEZ4); parameters: gene KMT2C
GLP = target: T3, GLP (Homo sapiens, UniProt Q9H9B1)
T3 construct: gene EHMT1
T3 sequence (Q9H9B1 1-1298): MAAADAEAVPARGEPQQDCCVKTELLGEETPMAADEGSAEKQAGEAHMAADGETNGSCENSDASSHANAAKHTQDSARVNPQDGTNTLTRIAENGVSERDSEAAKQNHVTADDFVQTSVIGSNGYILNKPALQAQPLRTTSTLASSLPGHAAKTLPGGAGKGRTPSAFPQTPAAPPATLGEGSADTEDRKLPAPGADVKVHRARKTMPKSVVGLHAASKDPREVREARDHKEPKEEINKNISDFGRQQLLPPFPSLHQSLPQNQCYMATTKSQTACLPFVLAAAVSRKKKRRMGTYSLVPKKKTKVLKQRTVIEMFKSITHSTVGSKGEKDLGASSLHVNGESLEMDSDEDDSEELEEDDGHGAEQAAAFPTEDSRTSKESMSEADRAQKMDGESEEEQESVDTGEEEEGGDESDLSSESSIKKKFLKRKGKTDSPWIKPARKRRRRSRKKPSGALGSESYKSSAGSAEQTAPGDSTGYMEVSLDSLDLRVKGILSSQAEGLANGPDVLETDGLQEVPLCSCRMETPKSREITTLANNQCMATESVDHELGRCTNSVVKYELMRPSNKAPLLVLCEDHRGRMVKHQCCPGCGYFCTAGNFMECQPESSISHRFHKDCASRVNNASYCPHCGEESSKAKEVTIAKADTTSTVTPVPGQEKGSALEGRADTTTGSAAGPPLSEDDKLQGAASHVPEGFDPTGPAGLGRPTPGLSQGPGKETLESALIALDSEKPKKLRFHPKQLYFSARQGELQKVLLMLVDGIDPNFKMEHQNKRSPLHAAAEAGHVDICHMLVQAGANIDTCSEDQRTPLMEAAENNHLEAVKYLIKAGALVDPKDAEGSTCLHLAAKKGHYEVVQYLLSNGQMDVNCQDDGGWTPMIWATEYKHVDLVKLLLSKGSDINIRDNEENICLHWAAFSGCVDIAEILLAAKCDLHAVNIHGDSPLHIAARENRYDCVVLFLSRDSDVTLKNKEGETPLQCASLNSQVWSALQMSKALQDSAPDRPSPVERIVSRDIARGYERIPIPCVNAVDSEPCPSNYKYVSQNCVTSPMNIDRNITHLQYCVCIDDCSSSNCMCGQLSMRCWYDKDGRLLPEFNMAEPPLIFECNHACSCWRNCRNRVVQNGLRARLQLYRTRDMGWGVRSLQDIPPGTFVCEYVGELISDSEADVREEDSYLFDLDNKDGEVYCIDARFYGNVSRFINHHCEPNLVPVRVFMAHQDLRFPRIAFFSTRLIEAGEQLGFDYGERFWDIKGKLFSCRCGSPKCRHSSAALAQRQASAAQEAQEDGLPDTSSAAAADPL

PRMT3 = PRMT3 (Homo sapiens, UniProt O60678)
PRMT3, sequence (O60678 2-531): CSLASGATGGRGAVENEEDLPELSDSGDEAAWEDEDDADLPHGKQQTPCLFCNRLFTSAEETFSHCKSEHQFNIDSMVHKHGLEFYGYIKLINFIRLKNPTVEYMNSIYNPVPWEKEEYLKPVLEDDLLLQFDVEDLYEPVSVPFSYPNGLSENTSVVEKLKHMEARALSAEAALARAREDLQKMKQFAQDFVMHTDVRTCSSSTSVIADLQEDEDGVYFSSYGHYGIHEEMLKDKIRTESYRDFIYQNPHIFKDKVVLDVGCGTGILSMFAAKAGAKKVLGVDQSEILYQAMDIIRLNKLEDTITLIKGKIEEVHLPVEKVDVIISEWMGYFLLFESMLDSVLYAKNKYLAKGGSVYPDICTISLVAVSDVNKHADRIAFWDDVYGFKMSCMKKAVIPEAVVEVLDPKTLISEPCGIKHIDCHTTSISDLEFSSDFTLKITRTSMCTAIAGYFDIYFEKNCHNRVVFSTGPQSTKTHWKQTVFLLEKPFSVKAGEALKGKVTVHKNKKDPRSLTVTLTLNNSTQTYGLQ

MLL1 Complex = MLL1 Complex (Homo sapiens, UniProt Q03164); parameters: gene KMT2A
MLL1 Complex, sequence (Q03164 whole entry, looked up, one chain of several): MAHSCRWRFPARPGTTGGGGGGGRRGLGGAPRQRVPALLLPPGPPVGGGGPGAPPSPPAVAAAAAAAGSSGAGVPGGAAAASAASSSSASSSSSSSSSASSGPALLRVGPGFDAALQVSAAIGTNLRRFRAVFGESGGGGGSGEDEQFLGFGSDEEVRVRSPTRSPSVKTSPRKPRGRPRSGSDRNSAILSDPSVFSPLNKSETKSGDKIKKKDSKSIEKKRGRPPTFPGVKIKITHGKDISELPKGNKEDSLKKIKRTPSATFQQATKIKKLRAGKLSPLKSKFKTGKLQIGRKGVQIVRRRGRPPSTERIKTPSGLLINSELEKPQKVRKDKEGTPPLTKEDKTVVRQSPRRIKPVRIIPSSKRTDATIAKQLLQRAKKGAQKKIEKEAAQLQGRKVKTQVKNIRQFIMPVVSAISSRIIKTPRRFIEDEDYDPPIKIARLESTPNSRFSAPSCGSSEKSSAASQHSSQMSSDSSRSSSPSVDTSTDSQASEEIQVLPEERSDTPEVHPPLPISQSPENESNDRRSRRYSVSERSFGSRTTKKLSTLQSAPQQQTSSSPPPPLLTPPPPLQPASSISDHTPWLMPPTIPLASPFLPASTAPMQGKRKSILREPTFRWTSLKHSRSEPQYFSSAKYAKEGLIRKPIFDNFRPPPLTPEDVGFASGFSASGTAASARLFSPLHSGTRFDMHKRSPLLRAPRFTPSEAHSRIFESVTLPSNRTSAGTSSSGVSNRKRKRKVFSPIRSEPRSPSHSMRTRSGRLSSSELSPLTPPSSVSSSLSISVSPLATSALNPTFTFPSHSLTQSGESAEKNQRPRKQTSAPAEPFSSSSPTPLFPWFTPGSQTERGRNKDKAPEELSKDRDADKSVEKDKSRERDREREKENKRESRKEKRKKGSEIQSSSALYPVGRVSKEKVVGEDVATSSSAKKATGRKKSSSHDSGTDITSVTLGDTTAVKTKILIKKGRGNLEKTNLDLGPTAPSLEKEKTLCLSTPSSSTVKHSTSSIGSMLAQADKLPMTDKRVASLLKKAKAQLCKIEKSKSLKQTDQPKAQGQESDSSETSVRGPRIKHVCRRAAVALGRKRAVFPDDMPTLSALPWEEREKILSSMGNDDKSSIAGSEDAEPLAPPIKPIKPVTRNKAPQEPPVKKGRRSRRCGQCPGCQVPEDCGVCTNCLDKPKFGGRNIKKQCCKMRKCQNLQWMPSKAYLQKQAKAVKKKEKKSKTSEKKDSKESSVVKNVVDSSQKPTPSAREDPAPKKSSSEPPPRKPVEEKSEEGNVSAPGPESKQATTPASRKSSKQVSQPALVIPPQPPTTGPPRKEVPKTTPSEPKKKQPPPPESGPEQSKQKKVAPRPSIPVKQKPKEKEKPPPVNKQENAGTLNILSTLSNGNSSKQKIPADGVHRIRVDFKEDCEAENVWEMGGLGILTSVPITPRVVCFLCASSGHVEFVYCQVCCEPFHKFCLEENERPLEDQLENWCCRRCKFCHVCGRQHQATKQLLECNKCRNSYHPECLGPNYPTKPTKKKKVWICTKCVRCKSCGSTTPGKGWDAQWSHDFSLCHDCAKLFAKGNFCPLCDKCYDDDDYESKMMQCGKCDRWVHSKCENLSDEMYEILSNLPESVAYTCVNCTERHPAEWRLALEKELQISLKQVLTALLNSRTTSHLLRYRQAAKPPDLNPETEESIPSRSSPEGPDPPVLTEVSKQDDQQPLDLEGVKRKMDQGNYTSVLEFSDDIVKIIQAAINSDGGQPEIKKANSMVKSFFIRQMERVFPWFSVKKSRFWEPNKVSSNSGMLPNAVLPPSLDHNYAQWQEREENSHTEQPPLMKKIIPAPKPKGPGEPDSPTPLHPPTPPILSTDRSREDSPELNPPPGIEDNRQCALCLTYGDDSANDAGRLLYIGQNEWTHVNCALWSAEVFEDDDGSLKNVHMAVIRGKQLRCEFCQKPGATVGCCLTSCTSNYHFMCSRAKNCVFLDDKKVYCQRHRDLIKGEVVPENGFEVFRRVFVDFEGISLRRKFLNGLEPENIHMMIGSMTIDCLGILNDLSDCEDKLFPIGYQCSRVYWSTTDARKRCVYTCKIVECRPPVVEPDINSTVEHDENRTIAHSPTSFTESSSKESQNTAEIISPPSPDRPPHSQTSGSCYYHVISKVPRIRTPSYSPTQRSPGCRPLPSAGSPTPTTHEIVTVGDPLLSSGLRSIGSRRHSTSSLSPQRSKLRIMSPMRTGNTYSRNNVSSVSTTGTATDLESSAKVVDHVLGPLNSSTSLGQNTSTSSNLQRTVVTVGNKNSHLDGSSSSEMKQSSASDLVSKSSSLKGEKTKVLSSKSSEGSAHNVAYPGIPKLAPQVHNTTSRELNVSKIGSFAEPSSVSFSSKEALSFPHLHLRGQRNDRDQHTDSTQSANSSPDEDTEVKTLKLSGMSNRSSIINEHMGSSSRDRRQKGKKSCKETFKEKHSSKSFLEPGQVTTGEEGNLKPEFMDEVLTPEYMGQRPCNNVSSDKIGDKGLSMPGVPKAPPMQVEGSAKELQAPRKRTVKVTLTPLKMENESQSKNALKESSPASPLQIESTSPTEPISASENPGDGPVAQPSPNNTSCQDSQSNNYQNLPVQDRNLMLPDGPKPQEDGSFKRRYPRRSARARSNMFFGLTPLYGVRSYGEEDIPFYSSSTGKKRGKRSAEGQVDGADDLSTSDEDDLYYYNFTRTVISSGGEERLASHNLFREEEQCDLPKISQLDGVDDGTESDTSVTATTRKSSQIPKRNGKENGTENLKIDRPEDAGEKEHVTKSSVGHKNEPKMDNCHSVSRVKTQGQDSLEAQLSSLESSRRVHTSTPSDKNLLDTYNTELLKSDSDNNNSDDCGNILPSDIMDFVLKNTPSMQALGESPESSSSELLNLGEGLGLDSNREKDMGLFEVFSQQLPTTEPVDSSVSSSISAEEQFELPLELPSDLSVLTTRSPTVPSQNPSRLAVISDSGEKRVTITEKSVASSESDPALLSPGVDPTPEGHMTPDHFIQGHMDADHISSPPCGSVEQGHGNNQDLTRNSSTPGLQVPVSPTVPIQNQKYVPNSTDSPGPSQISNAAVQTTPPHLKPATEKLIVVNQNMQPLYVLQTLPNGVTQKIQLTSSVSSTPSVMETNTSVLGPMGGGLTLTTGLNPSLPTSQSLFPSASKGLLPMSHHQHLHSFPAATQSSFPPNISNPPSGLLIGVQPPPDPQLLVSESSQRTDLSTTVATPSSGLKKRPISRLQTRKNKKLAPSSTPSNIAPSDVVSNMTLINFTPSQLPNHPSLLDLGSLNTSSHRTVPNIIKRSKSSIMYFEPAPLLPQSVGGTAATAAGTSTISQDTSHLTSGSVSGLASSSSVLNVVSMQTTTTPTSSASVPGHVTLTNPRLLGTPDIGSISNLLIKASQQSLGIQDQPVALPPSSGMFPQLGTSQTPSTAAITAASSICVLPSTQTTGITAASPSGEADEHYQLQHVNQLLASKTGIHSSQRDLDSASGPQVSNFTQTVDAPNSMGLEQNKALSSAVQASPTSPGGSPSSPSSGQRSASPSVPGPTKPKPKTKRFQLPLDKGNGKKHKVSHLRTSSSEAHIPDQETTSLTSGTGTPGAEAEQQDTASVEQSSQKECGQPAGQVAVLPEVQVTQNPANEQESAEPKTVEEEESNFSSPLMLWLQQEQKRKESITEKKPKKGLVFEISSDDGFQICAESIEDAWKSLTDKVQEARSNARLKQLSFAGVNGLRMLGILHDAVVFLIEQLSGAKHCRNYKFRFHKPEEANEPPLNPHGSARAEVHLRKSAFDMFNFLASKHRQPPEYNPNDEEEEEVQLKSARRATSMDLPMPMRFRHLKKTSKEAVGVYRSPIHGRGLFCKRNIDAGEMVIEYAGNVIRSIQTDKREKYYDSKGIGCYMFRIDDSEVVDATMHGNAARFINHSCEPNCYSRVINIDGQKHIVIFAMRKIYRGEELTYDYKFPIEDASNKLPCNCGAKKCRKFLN

SET1b Complex = SET1b Complex (Homo sapiens, UniProt Q9UPS6); parameters: gene SETD1B
SUV39H2 = SUV39H2 (Homo sapiens, UniProt Q9H5I1)
SUV39H2, sequence (Q9H5I1 48-410): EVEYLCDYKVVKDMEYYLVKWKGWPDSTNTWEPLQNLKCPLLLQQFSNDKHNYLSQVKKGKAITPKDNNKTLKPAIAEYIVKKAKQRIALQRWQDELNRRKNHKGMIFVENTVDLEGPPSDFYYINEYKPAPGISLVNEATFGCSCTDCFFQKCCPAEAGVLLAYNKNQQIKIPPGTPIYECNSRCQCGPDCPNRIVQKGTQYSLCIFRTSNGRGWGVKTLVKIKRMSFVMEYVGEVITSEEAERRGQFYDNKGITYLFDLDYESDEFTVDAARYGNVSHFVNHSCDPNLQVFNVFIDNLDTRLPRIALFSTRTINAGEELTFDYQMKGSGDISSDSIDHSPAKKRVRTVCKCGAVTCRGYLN

SMYD1 = target: T4, SMYD1 (Homo sapiens, UniProt Q8NB12)
T4 sequence (Q8NB12 1-490): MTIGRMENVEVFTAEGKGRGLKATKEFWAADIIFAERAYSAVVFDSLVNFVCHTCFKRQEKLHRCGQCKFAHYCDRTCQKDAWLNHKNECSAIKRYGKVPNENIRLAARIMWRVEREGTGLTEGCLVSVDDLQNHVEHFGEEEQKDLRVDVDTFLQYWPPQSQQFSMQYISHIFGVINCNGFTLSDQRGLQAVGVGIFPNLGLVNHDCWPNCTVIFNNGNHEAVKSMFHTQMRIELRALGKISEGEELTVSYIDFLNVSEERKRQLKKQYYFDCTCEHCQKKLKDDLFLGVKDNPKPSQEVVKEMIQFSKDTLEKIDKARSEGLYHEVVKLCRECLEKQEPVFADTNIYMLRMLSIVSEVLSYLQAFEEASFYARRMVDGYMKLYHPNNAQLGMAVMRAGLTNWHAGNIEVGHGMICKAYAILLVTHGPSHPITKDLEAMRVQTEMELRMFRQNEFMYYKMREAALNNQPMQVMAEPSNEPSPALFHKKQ

Nc1ncnc2c1ncn2[C@@H]1O[C@H](CSCC[C@H](N)C(=O)O)[C@@H](O)[C@H]1O [SAH]
IC50 (MLL2 Complex): 27 µM | IC50 (DNMT3b/3L): 0.012 µM | IC50 (SET7/9): 83 µM | IC50 (DNMT3a): 0.12 µM | IC50 (MLL4 Complex): 2.5 µM | IC50 (SETD2): 5.2 µM | IC50 (MLL3 Complex): 57 µM | IC50 (GLP): 0.53 µM | IC50 (PRMT3): 2.3 µM | IC50 (MLL1 Complex): 0.55 µM | IC50 (SET1b Complex): 1.5 µM | IC50 (SUV39H2): 55 µM | IC50 (SMYD1): 37 µM

— doi:10.1101/208439v1 (biorxiv, 2017)
